Experimental data taken from US20250064777A1, “PHARMACEUTICAL COMPOSITION FOR TREATMENT OF CASTRATION-RESISTANT PROSTATE CANCER COMPRISING BRUCEANTIN AND NANOPARTICLES” (SAMSUNG LIFE PUBLIC WELFARE FOUNDATION, priority 2021, published 2025).
Read-outs that look alike come from different tables or passages of the source.

Legend:
AR [1] = assay: Immunoblotting for AR in 22RV1 cells; assay type: cell-based; conditions: various concentrations, FIG. 8
Protocol: (§1) Castration-resistant prostate cancer cell line 22RV1 cells were cultured with RPMI-1640 (Welgene) medium containing 10% fetal bovine serum (FBS) (Welgene) and 1% penicillin/streptomycin.
(§2) Castration-resistant prostate cancer cell line 22RV1 cells were treated with various concentrations of each of bruceantin (BCT), nano-bruceantin 1 (nano-BCT #1), and nano-bruceantin 2 (nano-BCT #2) and subjected to cell growth inhibition assay and colony formation assay. Reporter gene assay was performed by transfecting 22RV1 cells with an MMTV-LUC reporter, which can measure the transcriptional activities of AR and AR-V7, and treating the cells with various concentrations of each of BCT, nano-BCT #1, and nano-BCT #2 depending on the presence or absence of the androgen dihydrotestosterone (DHT) (DHT+, AR transcriptional activity measurement condition; DHT−, AR-V7 transcriptional activity measurement condition). Immunoblotting was performed by treating 22RV1 cells with various concentrations of each of BCT and nano-BCT, extracting protein from the cells, electrophoresise protein on 4 to 12% SDS-PAGE gel, and transferring the electrophoresed protein to a PVDF membrane, followed by incubation with antibody.

AR-V7 [2] = assay: Immunoblotting for AR-V7 in 22RV1 cells; assay type: cell-based; conditions: various concentrations, FIG. 8
Protocol: as §1, §2

22RV1 cells [3] = assay: Colony formation assay; assay type: cell-based; conditions: various concentrations, FIG. 6
Protocol: as §1, §2

AR [4] = assay: MMTV-LUC reporter gene assay, DHT+ (AR transcriptional activity); assay type: cell-based; conditions: 22RV1 cells, FIG. 7
Protocol: as §1, §2

CWR22RV1 = CWR22RV1 xenograft mice: tumor volume and bioluminescence; assay type: in vivo; conditions: oral, 2 mg/kg every two days for 19 days
Protocol: Castration-resistant prostate cancer cell line CWR22RV1 was purchased from ATCC (USA), and xenograft mice were constructed by subcutaneously injecting CWR22RV1 into nude mice.
The xenograft mice were divided into a nanoparticle-treated group (nano-Veh), a control group (free-Veh), a nano-bruceantin-treated group (nano-BCT), and a bruceantin-treated group (free-BCT). The nano-BCT group and the free-BCT group were orally administered nano-bruceantin and bruceantin, respectively, at 2 mg/kg every two days for 19 days. Thereafter, tumor volume and bioluminescence were measured for each treated group.

AR-V7 [5] = assay: MMTV-LUC reporter gene assay, DHT− (AR-V7 transcriptional activity); assay type: cell-based; conditions: 22RV1 cells, FIG. 7
Protocol: as §1, §2

nude mice [6] = assay: Short-term toxicity of bruceantin and nano-bruceantin; assay type: in vivo; conditions: 5 mg/kg daily for 7 days, FIG. 3
Protocol: (§3) As Experimental Animals, 6-Week-Old Male Nude Mice (Orient Bio, Korea) were used.
Mice were divided into a nanoparticle-administered group (nano-Veh), a phosphate buffer saline-administered group (PBS), a nano-bruceantin-administered group (nano-BCT), and a bruceantin-administered group (free-BCT). The nano-BCT group was orally administered nano-bruceantin at 5 mg/kg daily for 7 days, and the free-BCT group was orally administered bruceantin at 5 mg/kg daily for 7 days.

[7] = Solubility of nano-bruceantin in aqueous solution (visual examination, UV-Vis spectroscopy); assay type: physicochemical
22RV1 cells [8] = assay: Cell growth inhibition assay; assay type: cell-based; conditions: concentration of 10 nM or more, FIG. 5
Protocol: as §1, §2

nude mice [9] = assay: Long-term toxicity of bruceantin and nano-bruceantin; assay type: in vivo; conditions: 2 mg/kg every two days for 17 days, FIG. 4
Protocol: as §3
The nano-BCT group was orally administered nano-bruceantin at 2 mg/kg every two days for 17 days, and the free-BCT group was orally administered bruceantin at 2 mg/kg every two days for 17 days.

AR/AR-V7 [10] = conditions: castration-resistant prostate cancer cell line 22RV1 cells; KR 10-2020-0139625; cited from earlier work
AR/AR-V7 [11] = conditions: androgen-dependent LNCaP cells; KR 10-2020-0139625; cited from earlier work

SMILES: COC(=O)[C@@]12OC[C@]34[C@H]([C@@H](O)[C@@H]1O)[C@@]1(C)CC(=O)C(O)=C(C)[C@@H]1C[C@H]3OC(=O)[C@H](OC(=O)/C=C(\C)C(C)C)[C@@H]24 [bruceantin]
- AR protein (immunoblotting) (AR [1]): decreased
- AR-V7 protein (immunoblotting) (AR-V7 [2]): decreased
- colony formation, compared between groups (22RV1 cells [3]): no significant difference
- AR transcriptional activity (reporter gene), compared between groups (AR [4]): no significant difference
- tumor volume (CWR22RV1; FIG. 9): decrease in tumor volume was from day 13
- bioluminescence (CWR22RV1; FIG. 10): decrease in bioluminescence
- AR-V7 transcriptional activity (reporter gene), compared between groups (AR-V7 [5]): no significant difference
- side effects upon short-term oral administration (nude mice [6]): accompanied by acute side effects such as exophthalmos, sudden death, and weight loss
- solubility [7]: < 100 µg/mL
- cell growth inhibitory effect, compared between groups (22RV1 cells [8]): similar
- side effects upon long-term oral administration (nude mice [9]): accompanied by side effects such as exophthalmos, sudden death, and weight loss
- transcriptional activity of AR/AR-V7 (AR/AR-V7 [10]): simultaneously and strongly inhibit
- transcriptional activity of AR/AR-V7 (AR/AR-V7 [11]): simultaneously and strongly inhibit
